Results as given in a melting point compilation (Tetko et al.; mined from patent text by program, amines drawn as free bases though some values may be those of a salt).

| SMILES | melting point |
| --- | --- |
| CC(=O)CN1CCc2c(c(=O)oc3cc(C)c(Cl)cc23)C1 | 172 to 175 °C |
| COc1cc(C)c(C=CC(C)=CC=CC(=O)O)c(C)c1C | 189 to 191 °C |
| CCOC(=O)C1=C(NC(=O)Nc2cc(C(=O)OC(C)C)c(Cl)cc2F)CCC1 | 146 to 149 °C |
| CC(CS)C(=O)NC(C(=O)O)C(C)C (stereo not given) | 150 to 157 °C |
| COC(=O)c1cccc(C[C@H](N)C(=O)O)c1 | > 200 °C |
| c1cnc2ncncc2c1 | 249 to 252 °C |
| CCCCc1nc(C(F)(F)F)c(C(=O)OCC)n1O | 77.5 to 80.5 °C |
| N=C(NO)c1nn(-c2c(Cl)cc(C(F)(F)F)cc2Cl)c(C=O)c1SC(F)(F)F | 72 to 75 °C |
| COC(=O)c1cccnc1CN1C(=O)C(NC(=O)Nc2cccc(C)c2)N=C(c2ccccc2F)c2ccccc21 (racemic) | 171 to 175 °C |
| COc1c(Cl)ccc(-c2cc(N)c(Cl)c(C(=O)NOCc3ccco3)n2)c1F | 161 to 164 °C |
| COc1ccc(S(=O)(=O)N2CC(C)(C)CN(S(=O)(=O)c3ccc(OC)cc3)C2C(=O)NO)cc1 | 125 to 126 °C |
| CN1C(=O)CN(c2cccc(C(F)(F)F)c2)NC1=O | 163 to 165 °C |
| NC(=S)c1cnn(-c2c(Cl)cc(C(F)(F)F)cc2Cl)n1 | 214 to 218 °C |
| O=CNC1=CCc2ccccc21 | 87.5 to 88.5 °C |
| CCOc1ccc(Oc2ccc(OCc3cc(F)ccc3F)cc2)c(N)c1 | 72 to 73.5 °C |
| Cc1c(C(=O)Nc2ccc(N3CCC(N4CCOCC4)CC3)c(C#N)c2)cnn1-c1ccc(F)c(Cl)c1 | 266 °C |
| CCCC(=O)Nc1n[nH]c2c(F)c(C(F)(F)F)ccc12 | 220 to 222 °C |
| CCc1cc(C)cc(C)c1C1C(=O)N2CCN(OC)CCN2C1=O | 213 to 215 °C |
| O=C(O)CCCNS(=O)(=O)c1ccc(NC(=O)Nc2ccc(C(F)(F)F)cc2)cc1 | 172 to 175 °C |

Now from value to compound:

| melting point | SMILES |
| --- | --- |
| 199 to 200 °C | CC1(C)OC(c2ccc(S(C)(=O)=O)c(F)c2)=C(c2ccc(N)cc2)C1=O |
| 216 to 218 °C | Cc1ccc(-c2c(O)c(=O)c3ccccc3n2C)cc1 |
| 152 to 155 °C | CC(=O)C(=NNc1ccc(Oc2ccccc2)cc1)Sc1ccc(Cl)cc1 |
| 130 to 140 °C | C[C@H](NC(=O)Cc1cccc(F)c1)C(=O)N[C@@H]1C(=O)Nc2ccccc2O[C@@H]1c1ccccc1 |
| 156 to 159 °C | Cn1c(C(=O)NN)nc2ccccc21 |
| 116 to 120 °C | O=c1oc(-c2cccc(C(F)(F)F)c2)nc2cccc(Cl)c12 |
| 121 to 123 °C | CC1(O)CC(=O)OC(C=Cc2ccccc2)C1(C)Br (stereo not given) |
| 185 to 188 °C | CCOC(=O)CC(O)(CC)c1cc2n(c(=O)c1C)Cc1cc3ccccc3nc1-2 (stereo not given) |
| > 250 °C | COc1ccc(-c2ccn3c(=O)c(C(=O)O)ccc3c2)cc1 |
| 250 to 260 °C | O=C1C=C(N2CCC3(CC2)CSC2=C(O3)c3ccccc3C(=O)C2=O)c2ccccc2C1=O |
| 266 to 268 °C | CC(=O)ONC(=N)c1ccc(-c2ccc(-c3ccc(C(=N)NOC(C)=O)nc3)o2)cc1 |
| 271 to 273 °C | CCCCn1cc(C(=O)O)c(=O)c2oc3ccc(Cl)cc3c(=O)c21 |
| 238 to 239 °C | CCCCc1nc2cc(C(=O)O)ccc2n1Cc1ccccc1Cl |
| 106 °C | COC(=O)C1CCn2c1cc(Cl)c2C(=O)c1ccccc1 (stereo not given) |
| 100 to 101 °C | Cc1c(C)n(CCCF)c2c(OCc3ccccc3)nncc12 |
| 176 to 178 °C | CS(=O)(=O)NCCCn1c(CCCOc2ccccc2)nc2c(N)nc3ccccc3c21 |
| 206 to 208 °C | COc1ccc(C(=S)Nc2ccccc2)cc1NS(=O)(=O)c1cc(Cl)cc(Cl)c1 |
| > 300 °C | CCc1c(-c2ccncc2)[nH]c2ccc(C3=NNC(=O)CC3)cc12 |
| 107 to 109 °C | Cc1ccc(Oc2ccc(-n3cncn3)cc2)c(O)c1 |
| 61.5 to 62.5 °C | Cc1ccc(C(=S)CC2CCCN(C)C2)cc1 (stereo not given) |
| 215 to 216 °C | O=C(NO)c1ccc(CNC(=O)c2[nH]c(-c3ccccc3)cc2-c2ccc(F)cc2)cc1 |
